Source: patent US6677277B1, “Substituted sulphonyl amino(thio)carbonyl compounds and their use as herbicides” (Bayer Aktiengesellschaft, priority 1996, dated 2004)

Columns and labels:
[1] = tested on: weeds; test: Pre-emergence test; format: in vivo; conditions: cf. Tables A-1 to A-5
Protocol: (§1) Pre-emergence Test Solvent: 5 parts by weight of acetone Emulsifier: 1 part by weight of alkylaryl polyglycol ether To produce a suitable preparation of active compound, 1 part by weight of active compound is mixed with the stated amount of solvent, the stated amount of emulsifier is added and the concentrate is diluted with water to the desired concentration. Seeds of the test plants are sown in normal soil. After about 24 hours, the soil is sprayed with the preparation of the active compound in such a way as to apply the particular amounts of active compound desired per unit area The concentration of the spray liquor is chosen so that the particular amounts of active compound desired are applied in 1000 l of water/ha. After three weeks, the degree of damage to the plants is rated in % damage in comparison to the development of the untreated control. The figures denote: [table]

[2] = tested on: Veronica; test: Pre-emergence test/greenhouse; format: in vivo; conditions: 60 g ai./ha, after three weeks
Protocol: as §1

[3] = tested on: Wheat; test: Pre-emergence test/greenhouse; format: in vivo; conditions: 60 g ai./ha, after three weeks
Protocol: as §1

[4] = tested on: Chenopodium; test: Pre-emergence test/greenhouse; format: in vivo; conditions: after three weeks
Protocol: as §1

[5] = tested on: Amaranthus; test: Pre-emergence test/greenhouse; format: in vivo; conditions: after three weeks
Protocol: as §1

[6] = tested on: Alopecurus; test: Pre-emergence test/greenhouse; format: in vivo; conditions: after three weeks
Protocol: as §1

[7] = tested on: Sorghum; test: Pre-emergence test/greenhouse; format: in vivo; conditions: after three weeks
Protocol: as §1

[8] = tested on: Lolium; test: Pre-emergence test/greenhouse; format: in vivo; conditions: after three weeks
Protocol: as §1

[9] = tested on: Solanum; test: Pre-emergence test/greenhouse; format: in vivo; conditions: after three weeks
Protocol: as §1

[10] = log P n-octanol/water by the HPLC method; format: physicochemical; conditions: at pH 2, eluent acetonitrile containing 1% of H3PO4
[11] = tested on: weeds; test: Post-emergence test; format: in vivo; conditions: cf. Tables B-1 to B-4
Protocol: as §1, with “Post-emergence” for “Pre-emergence”, “Test plants which have a height” for “Seeds”, “5-15 cm” for “the test plants”, “are” for “are sown in normal soil. After about 24 hours, the soil is”, “area.” for “area”

[12] = tested on: Maize; test: Pre-emergence test/greenhouse; format: in vivo; conditions: after three weeks
Protocol: as §1

[13] = tested on: Wheat; test: Post-emergence test/greenhouse; format: in vivo; conditions: 60 g ai./ha
Protocol: as §1, with “Post-emergence” for “Pre-emergence”, “Test plants which have a height” for “Seeds”, “5-15 cm” for “the test plants”, “are” for “are sown in normal soil. After about 24 hours, the soil is”, “area.” for “area”

[14] = tested on: Xanthium; test: Post-emergence test/greenhouse; format: in vivo; conditions: 60 g ai./ha; for Xanthium, % damage: rated after three weeks vs untreated control
Protocol: as §1, with “Post-emergence” for “Pre-emergence”, “Test plants which have a height” for “Seeds”, “5-15 cm” for “the test plants”, “are” for “are sown in normal soil. After about 24 hours, the soil is”, “area.” for “area”

[15] = tested on: Alopecurus; test: Post-emergence test/greenhouse; format: in vivo; conditions: 60 g ai./ha, after three weeks
Protocol: as §1, with “Post-emergence” for “Pre-emergence”, “Test plants which have a height” for “Seeds”, “5-15 cm” for “the test plants”, “are” for “are sown in normal soil. After about 24 hours, the soil is”, “area.” for “area”

[16] = tested on: Ipomoea; test: Post-emergence test/greenhouse; format: in vivo; conditions: 60 g ai./ha; for % damage, Ipomoea: after three weeks
Protocol: as §1, with “Post-emergence” for “Pre-emergence”, “Test plants which have a height” for “Seeds”, “5-15 cm” for “the test plants”, “are” for “are sown in normal soil. After about 24 hours, the soil is”, “area.” for “area”

[17] = tested on: Sorghum; test: Post-emergence test/greenhouse; format: in vivo; conditions: 60 g ai./ha; for % damage, Sorghum: after three weeks; for Sorghum, % damage: rated after three weeks vs untreated control
Protocol: as §1, with “Post-emergence” for “Pre-emergence”, “Test plants which have a height” for “Seeds”, “5-15 cm” for “the test plants”, “are” for “are sown in normal soil. After about 24 hours, the soil is”, “area.” for “area”

[18] = tested on: Stellaria; test: Post-emergence test/greenhouse; format: in vivo; conditions: 60 g ai./ha; for % damage, Stellaria: after three weeks
Protocol: as §1, with “Post-emergence” for “Pre-emergence”, “Test plants which have a height” for “Seeds”, “5-15 cm” for “the test plants”, “are” for “are sown in normal soil. After about 24 hours, the soil is”, “area.” for “area”

[19] = tested on: Lolium; test: Post-emergence test/greenhouse; format: in vivo; conditions: 60 g ai./ha, after three weeks
Protocol: as §1, with “Post-emergence” for “Pre-emergence”, “Test plants which have a height” for “Seeds”, “5-15 cm” for “the test plants”, “are” for “are sown in normal soil. After about 24 hours, the soil is”, “area.” for “area”

[20] = tested on: Solanum; test: Post-emergence test/greenhouse; format: in vivo; conditions: 60 g ai./ha; for % damage, Solanum: after three weeks; for Solanum, % damage: rated after three weeks vs untreated control
Protocol: as §1, with “Post-emergence” for “Pre-emergence”, “Test plants which have a height” for “Seeds”, “5-15 cm” for “the test plants”, “are” for “are sown in normal soil. After about 24 hours, the soil is”, “area.” for “area”

[21] = tested on: Amaranthus; test: Post-emergence test/greenhouse; format: in vivo; conditions: Table B-4, post-emergence, 60 g ai./ha, rated after three weeks vs untreated control
Protocol: as §1, with “Post-emergence” for “Pre-emergence”, “Test plants which have a height” for “Seeds”, “5-15 cm” for “the test plants”, “are” for “are sown in normal soil. After about 24 hours, the soil is”, “area.” for “area”

[22] = tested on: Soya beans; test: Pre-emergence test/greenhouse; format: in vivo; conditions: 125 g ai./ha, after three weeks
Protocol: as §1

[23] = tested on: Matricaria; test: Pre-emergence test/greenhouse; format: in vivo; conditions: after three weeks
Protocol: as §1

[24] = rated after three weeks vs untreated control

CCOc1nn(C(=O)NS(=O)(=O)c2c(OC(F)(F)F)cccc2SC)c(=O)n1C [Example 35]
activity against weeds [1]: very strong activity | % damage, Veronica [2]: 100% | % damage, Wheat [3]: 10% | % damage, Chenopodium ([4]; 60 g ai./ha): 100% | % damage, Amaranthus ([5]; 60 g ai./ha): 100% | % damage, Alopecurus ([6]; 60 g ai./ha): 100% | % damage, Sorghum ([7]; 60 g ai./ha): 90% | % damage, Lolium ([8]; 60 g ai./ha): 95% | % damage, Solanum ([9]; 60 g ai./ha): 95%

COc1nn(C(=O)NS(=O)(=O)c2c(SCC(F)F)cccc2C(F)(F)F)c(=O)n1C1CC1 [Example 100]
log P [10]: (log P = 2.96)

CCc1nn(C(=O)NS(=O)(=O)c2c(OC(F)(F)F)cccc2SC)c(=O)n1C [Example 34]
activity against weeds [1]: very strong activity | activity against weeds [11]: very strong activity | % damage, Chenopodium ([4]; 60 g ai./ha): 90% | % damage, Amaranthus ([5]; 60 g ai./ha): 90% | % damage, Alopecurus ([6]; 60 g ai./ha): 100% | % damage, Sorghum ([7]; 60 g ai./ha): 90% | % damage, Lolium ([8]; 60 g ai./ha): 80% | % damage, Maize ([12]; 60 g ai./ha): 20% | % damage, Solanum ([9]; 60 g ai./ha): 95% | % damage, Wheat ([13]; after three weeks): 20% | % damage, Xanthium ([14]; post-emergence, after three weeks): 95% | % damage, Alopecurus [15]: 90% | % damage, Ipomoea [16]: 80% | % damage, Sorghum ([17]; post-emergence): 100% | % damage, Stellaria [18]: 80% | % damage, Lolium [19]: 70% | % damage, Solanum ([20]; post-emergence): 95%

CCc1nn(C(=O)NS(=O)(=O)c2c(C)cccc2SC)c(=O)n1C [Example 49]
activity against weeds [11]: very strong activity | Wheat, % damage [13, 24]: 20% | Xanthium, % damage ([14]; Table B-4, post-emergence): 95% | Xanthium, % damage ([14]; post-emergence): 95% | Amaranthus, % damage [21]: 95% | Ipomoea, % damage [16, 24]: 90% | Sorghum, % damage ([17]; Table B-4, post-emergence): 90% | Sorghum, % damage ([17]; post-emergence): 90% | Stellaria, % damage [18, 24]: 70% | Solanum, % damage ([20]; Table B-4, post-emergence): 90% | Solanum, % damage ([20]; post-emergence): 90%

CCSc1cccc(OC(F)(F)F)c1S(=O)(=O)NC(=O)n1nc(SC)n(C)c1=O [Example 41]
activity against weeds [1]: very strong activity | % damage, Chenopodium ([4]; 125 g ai./ha): 100% | % damage, Amaranthus ([5]; 125 g ai./ha): 100% | % damage, Soya beans [22]: 20% | % damage, Alopecurus ([6]; 125 g ai./ha): 100% | % damage, Sorghum ([7]; 125 g ai./ha): 90% | % damage, Matricaria ([23]; 125 g ai./ha): 100% | % damage, Lolium ([8]; 125 g ai./ha): 80% | % damage, Maize ([12]; 125 g ai./ha): 10% | % damage, Solanum ([9]; 125 g ai./ha): 100%

COc1cccc(SC)c1S(=O)(=O)NC(=O)n1nc(OC)n(C)c1=O [Example 21]
activity against weeds [1]: very strong activity | activity against weeds [11]: very strong activity | % damage, Chenopodium ([4]; 60 g ai./ha): 100% | % damage, Amaranthus ([5]; 60 g ai./ha): 100% | % damage, Alopecurus ([6]; 60 g ai./ha): 100% | % damage, Sorghum ([7]; 60 g ai./ha): 100% | % damage, Matricaria ([23]; 60 g ai./ha): 90% | % damage, Lolium ([8]; 60 g ai./ha): 100% | % damage, Maize ([12]; 60 g ai./ha): 20% | % damage, Solanum ([9]; 60 g ai./ha): 100% | % damage, Alopecurus [15]: 100% | % damage, Ipomoea [16]: 90% | % damage, Sorghum ([17]; post-emergence): 100% | % damage, Stellaria [18]: 100% | % damage, Lolium [19]: 95% | % damage, Solanum ([20]; post-emergence): 100%

CSc1nn(C(=O)NS(=O)(=O)c2c(C)cccc2SCC(F)F)c(=O)n1C [Example 101]
log P [10]: (log P = 2.73)

CCOc1nn(C(=O)NS(=O)(=O)c2c(OC(F)(F)F)cccc2SC(C)C)c(=O)n1C [Example 25]
activity against weeds [1]: very strong activity | % damage, Chenopodium ([4]; 125 g ai./ha): 100% | % damage, Amaranthus ([5]; 125 g ai./ha): 95% | % damage, Soya beans [22]: 20% | % damage, Alopecurus ([6]; 125 g ai./ha): 100% | % damage, Sorghum ([7]; 125 g ai./ha): 80% | % damage, Matricaria ([23]; 125 g ai./ha): 95% | % damage, Lolium ([8]; 125 g ai./ha): 70% | % damage, Maize ([12]; 125 g ai./ha): 0% | % damage, Solanum ([9]; 125 g ai./ha): 100%
